Measurements taken from ChEMBL document CHEMBL5625168, “Purine containing carbonucleoside phosphonate analogues as novel chemotype for Plasmodium falciparum Inhibition” (Eur J Med Chem, 2023).

What was measured:
Plasmodium falciparum = assay: Antimalarial activity against Plasmodium falciparum 3D7 infected in RBC cells assessed as inhibition of parasite growth incubated for 48 hrs by [3H]hypoxanthine incorporation assay; assay type: functional, organism-based
[1] = target: T1, IMP-specific 5'-nucleotidase 1 (Plasmodium falciparum (isolate 3D7)) (UniProt A0A144A134); assay: Binding affinity to recombinant Plasmodium falciparum 3D7 ISN1 assessed as change in melting temperature at 1 uM by differential scanning fluorimetry method
T1 sequence (whole entry): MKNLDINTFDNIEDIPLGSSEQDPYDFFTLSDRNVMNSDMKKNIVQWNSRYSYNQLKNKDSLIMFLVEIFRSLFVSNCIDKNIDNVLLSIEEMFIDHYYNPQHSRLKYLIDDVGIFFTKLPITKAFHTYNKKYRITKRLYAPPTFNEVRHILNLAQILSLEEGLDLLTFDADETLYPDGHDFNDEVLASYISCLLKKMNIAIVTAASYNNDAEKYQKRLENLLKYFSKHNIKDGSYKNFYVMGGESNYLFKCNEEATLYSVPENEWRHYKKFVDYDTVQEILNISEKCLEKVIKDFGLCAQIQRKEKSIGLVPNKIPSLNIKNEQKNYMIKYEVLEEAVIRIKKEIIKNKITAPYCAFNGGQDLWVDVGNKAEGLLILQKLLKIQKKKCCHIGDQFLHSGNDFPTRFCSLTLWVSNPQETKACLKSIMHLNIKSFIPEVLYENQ

[2] = target: T1, IMP-specific 5'-nucleotidase 1 (Plasmodium falciparum (isolate 3D7)); assay: Binding affinity to recombinant Plasmodium falciparum 3D7 ISN1 assessed as change in melting temperature at 10 uM by differential scanning fluorimetry method
[3] = target: T1, IMP-specific 5'-nucleotidase 1 (Plasmodium falciparum (isolate 3D7)); assay: Binding affinity to recombinant Plasmodium falciparum 3D7 ISN1 assessed as change in melting temperature at 100 uM by differential scanning fluorimetry method
[4] = target: T2, IMP-specific 5'-nucleotidase 1 (Plasmodium falciparum (isolate 3D7), UniProt A0A144A134); assay: Binding affinity to recombinant Plasmodium falciparum 3D7 ISN1 assessed as dissociation constant by thermophoresis analysis
T2 sequence (A0A144A134 whole entry): T1 sequence (whole entry)

[5] = Plasmodium falciparum, 3D7, Erythrocyte

Structure (SMILES)	IC50 (Plasmodium falciparum; [5])	also measured
Nc1nc2c(ncn2[C@H]2CC[C@](O)(CP(=O)(O)O)C2)c(=O)[nH]1	42 µM	
Nc1nc2c(ncn2[C@@H]2CC[C@](O)(CP(=O)(O)O)C2)c(=O)[nH]1	1.3 µM	
Nc1nc2c(ncn2[C@@H]2CC[C@@](O)(CP(=O)(O)O)C2)c(=O)[nH]1	> 100 µM	
Nc1nc2c(ncn2[C@H]2CC[C@@](O)(CP(=O)(O)O)C2)c(=O)[nH]1		IC50 (Plasmodium falciparum; rbc): 44 µM
Nc1ncnc2c1ncn2[C@H]1CC[C@@](O)(CP(=O)(O)O)C1	14.7 µM	
COC1NC(N)=Nc2c1ncn2[C@H]1CC[C@@](O)(CCP(=O)(O)O)C1 (mixture of isomers)	10.2 µM	
Nc1nc2c(ncn2[C@H]2C=C[C@@](O)(CP(=O)(O)O)C2)c(=O)[nH]1 (racemic)	1 µM	ΔTm [1]: -0.9 °C; ΔTm [2]: 1.1 °C; ΔTm [3]: 4.1 °C; Kd [4]: 19.5 µM
Nc1nc2c(ncn2[C@@H]2CC(CP(=O)(O)O)=C[C@H]2O)c(=O)[nH]1 (racemic)	> 100 µM	
O=P(O)(O)C[C@]1(O)CC[C@H](n2cnc3c(NCc4ccccc4)nc(Cl)nc32)C1 (racemic)	68.3 µM	
Nc1nc2c(ncn2[C@H]2CC[C@@](O)(/C=C/P(=O)(O)O)C2)c(=O)[nH]1 (racemic)	50 µM	
Nc1nc2c(ncn2[C@H]2CC[C@@](O)(CCP(=O)(O)O)C2)c(=O)[nH]1 (racemic)	7 µM	
O=P(O)(O)C[C@]1(O)CC[C@H](n2cnc3c(NCc4ccccc4)nc(NCc4ccccc4)nc32)C1 (racemic)	41 µM	
Nc1ncnc2c1ncn2[C@@H]1CC(CP(=O)(O)O)=C[C@H]1O (racemic)	> 100 µM	
Nc1nc2c(ncn2[C@H]2CC[C@@](O)(CP(=O)(O)O)C2)c(=O)[nH]1 (racemic) [listing 1 of 2 here]		Kd [4]: 24.1 µM; IC50 (Plasmodium falciparum; rbc): 4.4 µM
Nc1nc(N)c2ncn([C@H]3CC[C@@](O)(CP(=O)(O)O)C3)c2n1 (racemic)	8.8 µM	
COc1nc(N)c2ncn([C@H]3CC[C@@](O)(CP(=O)(O)O)C3)c2n1 (racemic)	2.2 µM	
COc1nc(Cl)nc2c1ncn2[C@H]1CC[C@@](O)(CP(=O)(O)O)C1 (racemic)	> 100 µM	
Nc1ncnc2c1ncn2[C@H]1CC[C@@](O)(/C=C/P(=O)(O)O)C1 (racemic)	> 100 µM	
Nc1nc(NCc2ccccc2)c2ncn([C@H]3CC[C@@](O)(CP(=O)(O)O)C3)c2n1 (racemic)	79 µM	
Nc1nc2c(ncn2[C@H]2CC[C@@](O)(CP(=O)(O)O)C2)c(=O)[nH]1 (racemic) [listing 2 of 2 here]		ΔTm [1]: -2 °C; ΔTm [2]: -4.5 °C; ΔTm [3]: -5.2 °C
